According to ChEMBL document CHEMBL1201862, “PubChem BioAssay data set” (2004):
One block for each compound: values may come before it. Activity calls are given as the source filed them.

Experiments:
[1] = target: 5-hydroxytryptamine receptor 5A (Homo sapiens, UniProt P47898); assay: Counterscreen for agonists of OPRM1-OPRD1 heterodimerization: luminescence-based cell-based high throughput dose response assay to identify agonists of 5-hydroxytryptamine (serotonin) 5A receptor (HTR5A). [Related pubchem assays (depositor defined):AID504326, AID504355, AID504692, AID504904, AID504905]; format: functional
Sequence of 5-hydroxytryptamine receptor 5A (P47898 whole entry, the tested form may be a part): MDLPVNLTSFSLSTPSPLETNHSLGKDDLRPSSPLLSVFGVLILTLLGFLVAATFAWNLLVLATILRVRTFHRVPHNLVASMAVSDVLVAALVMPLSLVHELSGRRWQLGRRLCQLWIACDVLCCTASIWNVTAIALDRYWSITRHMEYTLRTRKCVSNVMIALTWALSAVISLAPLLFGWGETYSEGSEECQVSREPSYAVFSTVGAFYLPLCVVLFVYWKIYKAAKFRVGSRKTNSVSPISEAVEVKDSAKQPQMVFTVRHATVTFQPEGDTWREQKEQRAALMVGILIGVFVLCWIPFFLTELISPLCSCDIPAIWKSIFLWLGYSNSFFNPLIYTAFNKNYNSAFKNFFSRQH

[2] = target: Apelin receptor (Homo sapiens, UniProt P35414); assay: APJ beta-arrestin recruitment antagonism, SAR follow-up, selectivity assay for CCR6 antagonist project, cell-based, luminescent, enzyme-fragment complementation (AID 588359); format: functional
Sequence of Apelin receptor (P35414 whole entry, the tested form may be a part): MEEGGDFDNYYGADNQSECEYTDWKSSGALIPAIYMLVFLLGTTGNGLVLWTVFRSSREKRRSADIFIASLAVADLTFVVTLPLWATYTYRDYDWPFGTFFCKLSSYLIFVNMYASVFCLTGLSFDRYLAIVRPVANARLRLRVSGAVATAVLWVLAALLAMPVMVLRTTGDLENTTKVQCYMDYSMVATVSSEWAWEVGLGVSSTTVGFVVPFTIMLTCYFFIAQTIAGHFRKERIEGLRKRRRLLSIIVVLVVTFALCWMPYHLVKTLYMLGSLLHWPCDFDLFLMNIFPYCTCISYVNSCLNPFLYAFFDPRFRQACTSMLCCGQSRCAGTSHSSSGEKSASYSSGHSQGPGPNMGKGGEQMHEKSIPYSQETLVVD

[3] = target: Beta-galactosidase (Escherichia coli, UniProt Q8VNN2); assay: beta-galactosidase enzyme inhibitors and activators, dose response, artefact control for CCR6 antagonist project, biochemical, E. coli enzyme, set 3 (AID 504712); format: functional
Sequence of Beta-galactosidase (Q8VNN2 whole entry): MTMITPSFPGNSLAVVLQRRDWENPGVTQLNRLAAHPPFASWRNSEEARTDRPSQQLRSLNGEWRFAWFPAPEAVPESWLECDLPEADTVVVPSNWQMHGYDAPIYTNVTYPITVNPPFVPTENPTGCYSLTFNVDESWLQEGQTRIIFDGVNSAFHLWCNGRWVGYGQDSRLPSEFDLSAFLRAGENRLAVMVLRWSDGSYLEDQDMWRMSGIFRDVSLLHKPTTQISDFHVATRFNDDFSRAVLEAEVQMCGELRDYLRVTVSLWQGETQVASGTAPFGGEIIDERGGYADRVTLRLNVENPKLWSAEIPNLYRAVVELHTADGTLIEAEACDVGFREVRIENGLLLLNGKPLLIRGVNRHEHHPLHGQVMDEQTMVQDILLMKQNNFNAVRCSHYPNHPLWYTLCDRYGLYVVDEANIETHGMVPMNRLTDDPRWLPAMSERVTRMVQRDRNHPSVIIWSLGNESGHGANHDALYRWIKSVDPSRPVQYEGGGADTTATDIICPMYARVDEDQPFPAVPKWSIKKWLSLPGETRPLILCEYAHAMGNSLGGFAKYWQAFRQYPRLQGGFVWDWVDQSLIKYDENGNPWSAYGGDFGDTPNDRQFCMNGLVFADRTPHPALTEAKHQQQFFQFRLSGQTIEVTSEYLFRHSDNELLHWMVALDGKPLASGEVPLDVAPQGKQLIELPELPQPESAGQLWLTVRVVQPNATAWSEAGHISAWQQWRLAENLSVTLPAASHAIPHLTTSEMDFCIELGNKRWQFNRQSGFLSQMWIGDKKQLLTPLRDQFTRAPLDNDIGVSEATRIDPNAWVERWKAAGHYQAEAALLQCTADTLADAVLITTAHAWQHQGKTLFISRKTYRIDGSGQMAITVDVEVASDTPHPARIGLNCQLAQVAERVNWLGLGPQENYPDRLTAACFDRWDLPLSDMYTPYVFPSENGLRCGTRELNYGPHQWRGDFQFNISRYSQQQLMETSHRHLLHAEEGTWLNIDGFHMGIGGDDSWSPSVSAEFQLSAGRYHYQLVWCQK

[4] = target: Mu-type opioid receptor (Homo sapiens, UniProt P35372); assay: (§1) Counterscreen for agonists of heterodimerization of the mu 1 (OPRM1) and delta 1 (OPRD1) opioid receptors: Luminescence-based cell-based high throughput dose response assay to identify agonists of OPRM1 homodimerization.; format: functional
Sequence of Mu-type opioid receptor (P35372 whole entry, the tested form may be a part): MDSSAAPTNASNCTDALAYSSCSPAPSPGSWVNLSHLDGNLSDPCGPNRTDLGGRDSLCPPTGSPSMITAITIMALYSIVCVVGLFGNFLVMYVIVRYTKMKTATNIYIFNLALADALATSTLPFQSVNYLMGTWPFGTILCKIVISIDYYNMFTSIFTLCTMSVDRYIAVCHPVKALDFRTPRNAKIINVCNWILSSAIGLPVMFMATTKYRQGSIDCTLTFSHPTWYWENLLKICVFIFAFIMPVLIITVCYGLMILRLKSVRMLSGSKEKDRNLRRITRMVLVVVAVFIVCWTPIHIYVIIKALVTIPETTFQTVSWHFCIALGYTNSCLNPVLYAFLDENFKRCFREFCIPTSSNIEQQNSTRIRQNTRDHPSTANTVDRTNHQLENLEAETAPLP

[5] = target: T1, RNA-binding protein pos-1 (Caenorhabditis elegans, UniProt G5EF15); assay: inhibitors of POS-1/mex-3 RNA binding, dose response, biochemical, fluorescence polarization (AID 1964);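 further: purified POS-1 fused to maltose binding protein made in E. coli; potency of compounds blocking POS-1 binding to fluorescent RNA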
T1 sequence (G5EF15 whole entry): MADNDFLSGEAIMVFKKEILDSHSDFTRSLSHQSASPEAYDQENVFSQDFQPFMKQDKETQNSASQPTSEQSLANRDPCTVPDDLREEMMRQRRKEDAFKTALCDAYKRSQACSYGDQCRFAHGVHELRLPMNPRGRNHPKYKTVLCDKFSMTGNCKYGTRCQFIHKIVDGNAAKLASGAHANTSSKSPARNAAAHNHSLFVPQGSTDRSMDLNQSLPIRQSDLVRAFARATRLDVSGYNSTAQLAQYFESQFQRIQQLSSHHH

[6] = target: T2, Ubiquitin-conjugating enzyme E2 N (Homo sapiens, UniProt P61088); format: functional;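 further: Dose-response confirmation in a TR-FRET assay detecting UBC13-driven polyubiquitin chain formation, inhibition measured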
T2 sequence (P61088 whole entry): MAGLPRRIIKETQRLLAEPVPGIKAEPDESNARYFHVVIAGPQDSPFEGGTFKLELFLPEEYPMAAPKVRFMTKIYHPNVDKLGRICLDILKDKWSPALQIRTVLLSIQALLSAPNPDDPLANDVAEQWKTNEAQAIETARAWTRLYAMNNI

[7] = target: T3, Zinc finger protein mex-5 (Caenorhabditis elegans, UniProt Q9XUB2); assay: MEX-5/TCR-2 RNA interaction inhibitors, dose response, biochemical, C. elegans, fluorescence polarization (AID 1960)
T3 sequence (Q9XUB2 whole entry): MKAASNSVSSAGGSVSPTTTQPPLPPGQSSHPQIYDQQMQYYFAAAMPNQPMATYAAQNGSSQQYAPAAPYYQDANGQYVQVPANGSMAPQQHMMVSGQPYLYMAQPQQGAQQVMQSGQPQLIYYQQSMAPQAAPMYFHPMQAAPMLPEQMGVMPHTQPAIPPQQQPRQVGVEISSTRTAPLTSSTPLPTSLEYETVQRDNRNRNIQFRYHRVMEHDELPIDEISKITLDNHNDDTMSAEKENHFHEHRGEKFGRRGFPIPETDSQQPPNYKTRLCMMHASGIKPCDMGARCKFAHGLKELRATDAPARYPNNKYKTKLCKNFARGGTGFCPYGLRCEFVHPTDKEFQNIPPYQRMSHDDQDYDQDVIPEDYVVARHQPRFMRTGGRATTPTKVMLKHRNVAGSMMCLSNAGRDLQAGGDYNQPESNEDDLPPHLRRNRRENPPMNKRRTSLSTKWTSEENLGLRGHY

[8] = target: T4, Short transient receptor potential channel 4 (Mus musculus, UniProt Q9QUQ5); assay: mouse TRPC4 channel activators, dose response, cell-based, HEK293 TRPC4/mu-opioid, Fluo-4 calcium (AID 434937); format: functional
T4 sequence (Q9QUQ5 whole entry): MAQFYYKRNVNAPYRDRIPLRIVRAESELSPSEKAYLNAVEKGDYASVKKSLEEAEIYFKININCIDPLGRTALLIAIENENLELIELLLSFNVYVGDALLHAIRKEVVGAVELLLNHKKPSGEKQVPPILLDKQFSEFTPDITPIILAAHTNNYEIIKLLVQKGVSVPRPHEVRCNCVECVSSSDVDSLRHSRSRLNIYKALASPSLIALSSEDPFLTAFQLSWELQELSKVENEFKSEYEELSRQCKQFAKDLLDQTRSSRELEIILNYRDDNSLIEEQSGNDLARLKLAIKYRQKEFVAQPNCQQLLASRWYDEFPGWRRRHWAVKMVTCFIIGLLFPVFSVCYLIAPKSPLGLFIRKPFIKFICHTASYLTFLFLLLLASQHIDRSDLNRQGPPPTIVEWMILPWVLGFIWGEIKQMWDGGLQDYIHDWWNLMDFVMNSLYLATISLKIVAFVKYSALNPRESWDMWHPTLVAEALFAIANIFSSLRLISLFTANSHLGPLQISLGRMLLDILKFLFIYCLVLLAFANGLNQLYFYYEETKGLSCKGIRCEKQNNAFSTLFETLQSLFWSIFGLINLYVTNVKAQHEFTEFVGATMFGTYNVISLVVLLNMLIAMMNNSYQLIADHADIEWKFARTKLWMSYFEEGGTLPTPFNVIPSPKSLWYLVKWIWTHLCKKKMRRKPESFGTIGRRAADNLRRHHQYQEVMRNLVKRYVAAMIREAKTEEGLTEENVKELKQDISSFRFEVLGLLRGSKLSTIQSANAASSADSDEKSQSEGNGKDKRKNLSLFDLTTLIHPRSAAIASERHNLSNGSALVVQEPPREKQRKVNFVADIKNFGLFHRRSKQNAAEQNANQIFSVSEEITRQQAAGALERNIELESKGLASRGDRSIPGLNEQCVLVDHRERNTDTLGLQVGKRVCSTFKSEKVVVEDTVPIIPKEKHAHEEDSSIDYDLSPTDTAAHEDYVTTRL

[9] = target: Delta-type opioid receptor (Homo sapiens, UniProt P41143); assay: as §1, with “of OPRD1” for “of OPRM1”, “homodimerization. [Related pubchem assays (depositor defined):AID504326, AID504355, AID504692, AID504904, AID504905]” for “homodimerization.”; format: functional
Sequence of Delta-type opioid receptor (P41143 whole entry): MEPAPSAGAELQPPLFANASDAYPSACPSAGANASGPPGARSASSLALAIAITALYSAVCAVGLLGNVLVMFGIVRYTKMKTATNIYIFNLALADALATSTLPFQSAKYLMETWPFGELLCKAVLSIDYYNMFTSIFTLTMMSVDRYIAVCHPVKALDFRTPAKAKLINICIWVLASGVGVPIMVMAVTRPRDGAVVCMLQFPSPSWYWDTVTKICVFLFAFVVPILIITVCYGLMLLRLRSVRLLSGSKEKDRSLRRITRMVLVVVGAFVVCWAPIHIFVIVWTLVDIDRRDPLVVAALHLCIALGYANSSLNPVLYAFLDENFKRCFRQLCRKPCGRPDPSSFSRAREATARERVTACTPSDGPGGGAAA

[10] = target: Nuclear receptor subfamily 0 group B member 1 (Homo sapiens, UniProt P51843); assay: Luminescence-based cell-based high throughput dose response assay for inhibitors of the orphan nuclear receptor subfamily 0, group B, member 1 (DAX1; NR0B1). [Related pubchem assays (depositor defined):AID504766, AID504790]; format: functional
Sequence of Nuclear receptor subfamily 0 group B member 1 (P51843 whole entry): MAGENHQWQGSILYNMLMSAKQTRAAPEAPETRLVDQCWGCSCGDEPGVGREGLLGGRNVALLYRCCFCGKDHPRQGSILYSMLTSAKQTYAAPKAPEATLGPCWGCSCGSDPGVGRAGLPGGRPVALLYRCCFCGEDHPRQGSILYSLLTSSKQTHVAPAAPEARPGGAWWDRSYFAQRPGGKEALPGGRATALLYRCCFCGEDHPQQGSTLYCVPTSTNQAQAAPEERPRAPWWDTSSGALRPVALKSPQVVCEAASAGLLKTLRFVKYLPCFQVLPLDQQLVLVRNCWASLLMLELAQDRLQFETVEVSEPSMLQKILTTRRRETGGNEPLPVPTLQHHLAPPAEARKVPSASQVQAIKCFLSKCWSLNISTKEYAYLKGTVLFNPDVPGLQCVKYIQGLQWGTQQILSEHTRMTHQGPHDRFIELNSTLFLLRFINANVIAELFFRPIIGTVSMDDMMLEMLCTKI

[11] = system: HEK293; assay: cells; format: functional, cell-based; settings: Homo sapiens
[12] = Luminescence Cell-Based Dose Confirmation HTS to Identify Inhibitors of Platelet Dense Granule Release. [Related pubchem assays: 1663 (Primary HTS), 1678 (Summary of Project)]; format: functional
[13] = system: Escherichia coli; assay: microbe, parasite or virus in culture
[14] = target: Luciferin 4-monooxygenase (Photinus pyralis, UniProt P08659); assay: firefly luciferase enzyme inhibitors, dose response, biochemical, luminescence (AID 1891)
Sequence of Luciferin 4-monooxygenase (P08659 whole entry): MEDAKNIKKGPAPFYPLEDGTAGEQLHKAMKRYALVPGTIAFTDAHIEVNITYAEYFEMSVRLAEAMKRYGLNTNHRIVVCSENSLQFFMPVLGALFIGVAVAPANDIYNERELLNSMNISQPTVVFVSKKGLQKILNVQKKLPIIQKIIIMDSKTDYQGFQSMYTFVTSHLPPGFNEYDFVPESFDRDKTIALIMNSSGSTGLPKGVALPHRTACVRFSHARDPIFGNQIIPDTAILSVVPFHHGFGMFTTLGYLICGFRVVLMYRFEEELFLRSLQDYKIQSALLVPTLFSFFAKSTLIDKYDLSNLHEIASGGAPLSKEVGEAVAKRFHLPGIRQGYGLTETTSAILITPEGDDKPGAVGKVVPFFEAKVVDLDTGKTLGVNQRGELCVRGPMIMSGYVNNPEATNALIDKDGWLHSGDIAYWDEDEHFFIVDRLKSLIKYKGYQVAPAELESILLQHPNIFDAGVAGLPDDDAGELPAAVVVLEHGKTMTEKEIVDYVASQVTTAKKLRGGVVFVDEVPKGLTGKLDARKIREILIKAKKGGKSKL

[15] = target: T5, Rac GTPase-activating protein 1 (Homo sapiens, UniProt Q9H0H5); assay: MgcRacGAP GTPase-activating activity inhibitors, confirmation, biochemical, ADP Hunter fluorescence, primary and confirmatory (AID 624330); format: functional
T5 sequence (Q9H0H5 whole entry): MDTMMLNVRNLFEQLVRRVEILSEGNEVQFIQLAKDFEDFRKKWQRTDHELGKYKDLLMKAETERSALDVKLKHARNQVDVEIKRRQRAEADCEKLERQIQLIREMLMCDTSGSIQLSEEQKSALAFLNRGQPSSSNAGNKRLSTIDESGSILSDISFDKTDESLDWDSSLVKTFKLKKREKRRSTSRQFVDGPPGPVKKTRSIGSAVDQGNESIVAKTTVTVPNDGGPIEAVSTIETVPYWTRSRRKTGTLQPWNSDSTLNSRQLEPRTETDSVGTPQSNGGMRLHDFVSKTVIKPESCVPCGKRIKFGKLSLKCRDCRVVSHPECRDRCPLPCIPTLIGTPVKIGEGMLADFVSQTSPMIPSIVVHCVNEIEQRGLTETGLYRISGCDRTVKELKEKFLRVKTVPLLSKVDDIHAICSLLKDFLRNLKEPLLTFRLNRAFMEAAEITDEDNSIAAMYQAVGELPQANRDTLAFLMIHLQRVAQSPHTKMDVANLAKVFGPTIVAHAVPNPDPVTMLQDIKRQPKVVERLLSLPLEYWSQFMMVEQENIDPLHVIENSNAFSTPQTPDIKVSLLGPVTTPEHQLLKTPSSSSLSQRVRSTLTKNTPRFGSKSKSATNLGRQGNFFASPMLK

[16] = system: HeLa; assay: HeLa cell cytotoxicity, dose response, cytotoxicity control for MITF activator project, CellTiter-Glo luminescence, cherry-pick samples (AID 540259); format: functional, cell-based; settings: Homo sapiens

EC50 [1]: > 92.5 µM (inactive)
IC50 [2]: 19.3 µM (active)
IC50 [3]: > 66.6 µM (inactive)
EC50 [4]: > 92.5 µM (inactive)
EC50 [5]: 40.4 µM (active)
IC50 [6]: > 20 µM (inactive)
EC50 [7]: 40.6 µM (active)
EC50 [8]: 2.66 µM (active)
EC50 [9]: > 92.5 µM (inactive)
SMILES: COCCCn1c(N)c(-c2nc3ccccc3n2C)c2nc3ccccc3nc21

SMILES: O=C(COc1ccc(Cl)cc1Cl)c1ccc[nH]1
IC50 [10]: > 67.6 µM (inactive)
IC50 [11]: > 67.6 µM (inactive)

SMILES: COc1ccc(/C=N/Nc2ccccn2)cc1O
EC50 [12]: 12.5 µM (active)
AC50 [13]: 31.1 µM (active)
EC50 [14]: 17.6 µM (active)
IC50 [15]: 70.2 µM (active)
AC50 [16]: 282 µM (active)
